From US12678412B2, “Substituted tolans for the modulation of microbial colonization” (BioMendics, LLC, priority 2017, dated 2026)

Assays:
S. typhimurium TA1535 = assay: Dose range finding colony forming assay, strain TA1535 without metabolic activation; assay type: cell-based
Protocol: A series of dose range finding assays were performed with five bacterial strains, S. typhimurium TA97a, TA98, TA100, TA1535, and E. coli WP2 uvrA pKM101, with and without metabolic activation at three plates per dose. The following doses, along with positive and negative controls, were tested: 5000, 2500, 1250, 500, 250, 125, 50, 20, 10, 5, 2, 1, and 0.2 μg/plate. The plates were evaluated for toxicity (a decrease in plate counts with increasing dose and/or a visible thinning of the background lawn) and for precipitation of the test article. Metabolic activation was included in some samples by adding phenobarbital/benzoflavone-induced rat liver S9 fractions with cofactors (S9 mix). Prior to use, freshly thawed aliquots of rat liver S9 were mixed with a sterile cofactor mix. The S9 mix contains a 10% liver S9 concentration and was refrigerated or stored on ice until used. When testing with metabolic activation, the S9 mix was used in the assay tube in place of phosphate buffer.
Dosing formulations were prepared to deliver all doses in a constant volume of 0.1 mL. The highest dose was prepared from test article weighed to the nearest 0.1 mg and the remaining formulations were prepared as serial dilutions from the high dose stock formulation. Using a permanent marking pen or computer printed labels, assay plates were labeled with the project and study numbers and the date. Assay plates and tubes were labeled with a unique identifier, which was used to match the assay tubes with the properly identified minimal glucose agar plate.
The pre-incubation method was used to perform the assay. The assay mix consisted of 0.1 mL of the test article formulation or control article, 0.5 mL S9 mix or phosphate buffer, and 0.1 mL of bacterial culture. Assay tubes were incubated at 37±1° C. with gentle agitation for 20±1 minutes, then 2.0-2.5 mL top agar was added to the assay mix and the top agar/assay mix poured onto appropriately labeled minimal glucose agar plates. Once the top agar hardened, the plates were inverted and incubated at 37±1° C. for 48±2 hours. Plates were counted with the Sorcerer (v. 2.2)/Ames Study Manager (v. 1.2.4) system from Perceptive Instruments (Suffolk, UK). With this system, plate counts are automatically transferred from the plate imager (Sorcerer) to a Study Manager spreadsheet, and the data are stored in a secure manner on an Oracle database. Some plates were hand counted, e.g., if sample precipitate interferes with automatic counting or toxicity results in the formation of microcolonies, in which case, counts for these plates were entered into the spreadsheet manually. Plates were scored also with the extent of colonization by a post fix code.

[1] = system: Pseudomonas aeruginosa ATCC 27312; assay: Colony forming assay, spread plate, Pseudomonas aeruginosa; assay type: cell-based; conditions: for Reduction of PA counts: compared to vehicle, Tobramycin and untreated control
Protocol: A fresh culture of pathogenic isolate was used in these examples. The bacterial strains used were Methicillin Resistant Staphylococcus aureus (MRSA USA 300), Pseudomonas aeruginosa ATCC 27312, and Candida albicans ATCC 64550.
FIG. 5 illustrates the spread plate method used in these examples. In sum, agar plates were made, bacteria were diluted to 10^6 or 10^8 CFU/mL, bacteria and drug were mixed together and then plated. Glass spreading beads were used because they give a better bacterial spread. Plates were incubated for 24 hrs then the colonies that formed were counted.
Proliferating cultures of Pseudomonas aeruginosa (PA, ATCC 27312) and Candida albicans (CA, ATCC 64550) were used in a colony forming assay. Freeze-dried bacteria cultures were recovered by swabbing a 3-cm diameter growth area and resuspending it to obtain a final inoculum suspension of approximately 10^6 CFU/mL. The concentration was confirmed using historical optical density measurements. Before bacteria challenge, the tolan compound BM3103 was suspended in 100% diethylene glycol monoethyl ether (Formulation C) with vehicle control consisting solely of the diethylene glycol monoethyl ether. Before plating, 100 μL of the final inoculum (10^6 CFU/mL) was mixed with 200 μL LB broth and 200 μL of BM3103 doses, vehicle, positive control (Tobramycin, 12 μg/mL for PA and 160 μg/mL for CA), or untreated control (phosphate buffered saline). The final plating concentration for the high, middle, and low BM3103 doses were 0.5%, 0.25%, and 0.1% w/v (22 mM, 11 mM, and 4 mM), respectively. The inoculum was plated on agar with centrimide and nalidixate (CN) supplement for PA (though sodium nalidixate or nalixic acid could also be used), and on Tryptic Soy Broth plates for CA experiments, at 37° C. for 24 h. Plates were photographed and counted. The experiment was done in triplicate.
Colony counts for each treatment were tabulated and the Log of the colony forming units/mL (Log CFU/mL) were determined. The mean and standard deviation of the Log CFU/mL were calculated for each treatment. […] The medium and low dose groups reduced PA counts when compared to the vehicle, Tobramycin, and untreated control groups by about 5-fold.

MRSA USA 400 biofilms = assay: Treatment of an existing biofilm; assay type: cell-based, Staphylococcus aureus
Protocol: For the treatment of MRSA USA 400 biofilms, the same 96 well plate assay procedure was used as described in the biofilm inhibition section above. However, the MRSA USA 400 inoculum (10^8 CFU/mL) grew overnight at 37° C. in the absence of BM3103 and without shaking. After 24 h of biofilm formation, BM3103 was serially diluted across a 96 well plate from of 1 mM to 0.002 mM. The plate was incubated again overnight at 37° C. without shaking.

SMILES: COc1ccc(C#Cc2ccc(O)cc2)cc1 [BM3103, 4-hydroxy-4′-methoxytolan]
- Colony forming units/plate (S. typhimurium TA1535; 0.2 μg/plate): 12.0 colony forming units/plate
- Individual colony counts (S. typhimurium TA1535; 0.2 μg/plate): 12
- Colony forming units/plate (S. typhimurium TA1535; 1 μg/plate): 11.0 colony forming units/plate
- Individual colony counts (S. typhimurium TA1535; 1 μg/plate): 11
- Colony forming units/plate (S. typhimurium TA1535; 2 μg/plate): 10.0 colony forming units/plate
- Individual colony counts (S. typhimurium TA1535; 2 μg/plate): 10
- Colony forming units/plate (S. typhimurium TA1535; 5 μg/plate): 6.0 colony forming units/plate
- Individual colony counts (S. typhimurium TA1535; 5 μg/plate): 6
- Colony forming units/plate (S. typhimurium TA1535; 10 μg/plate): 0.0 colony forming units/plate
- Individual colony counts (S. typhimurium TA1535; 10 μg/plate): 0
- Plate postfix code (individual colony counts) (S. typhimurium TA1535; 10 μg/plate): A T
- Colony forming units/plate (S. typhimurium TA1535; 20 μg/plate): 0.0 colony forming units/plate
- Individual colony counts (S. typhimurium TA1535; 20 μg/plate): 0
- Colony forming units/plate (S. typhimurium TA1535; 50 μg/plate): 0.0 colony forming units/plate
- Individual colony counts (S. typhimurium TA1535; 50 μg/plate): 0
- Colony forming units/plate (S. typhimurium TA1535; 125 μg/plate): 0.0 colony forming units/plate
- Individual colony counts (S. typhimurium TA1535; 125 μg/plate): 0
- Colony forming units/plate (S. typhimurium TA1535; 250 μg/plate): 0.0 colony forming units/plate
- Individual colony counts (S. typhimurium TA1535; 250 μg/plate): 0
- Colony forming units/plate (S. typhimurium TA1535; 500 μg/plate): 0.0 colony forming units/plate
- Individual colony counts (S. typhimurium TA1535; 500 μg/plate): 0
- Colony forming units/plate (S. typhimurium TA1535; 1250 μg/plate): 0.0 colony forming units/plate
- Individual colony counts (S. typhimurium TA1535; 1250 μg/plate): 0
- Plate postfix code (individual colony counts) (S. typhimurium TA1535; 1250 μg/plate): A P
- Colony forming units/plate (S. typhimurium TA1535; 2500 μg/plate): 0.0 colony forming units/plate
- Individual colony counts (S. typhimurium TA1535; 2500 μg/plate): 0
- Plate postfix code (individual colony counts) (S. typhimurium TA1535; 2500 μg/plate): A P
- Colony forming units/plate (S. typhimurium TA1535; 5000 μg/plate): 0.0 colony forming units/plate
- Individual colony counts (S. typhimurium TA1535; 5000 μg/plate): 0
- Plate postfix code (individual colony counts) (S. typhimurium TA1535; 5000 μg/plate): A P
- Dose dependence of effect on PA bacterial counts ([1]; 0.1-0.5% w/v, Formulation C): dose dependent inhibitory effect
- PA bacterial counts ([1]; high dose 0.5% w/v, 22 mM, diethylene glycol monoethyl ether (Formulation C), 24 h, FIG. 7): no bacteria colonies
- Reduction of PA counts ([1]; low dose 0.1% w/v, 4 mM, Formulation C, 24 h): about 5 fold
- Reduction of PA counts ([1]; medium dose 0.25% w/v, 11 mM, Formulation C, 24 h): about 5 fold
- Reduction of established MRSA USA 400 biofilm (MRSA USA 400 biofilms; 0.008 mM, 24 h treatment of 24 h biofilm, FIG. 14C): slight reduction in the biofilm
- Reduction of established MRSA USA 400 biofilm (MRSA USA 400 biofilms; 0.0625 mM or above, 24 h treatment of 24 h biofilm, FIG. 14B): reduced the biofilm of MRSA USA 400 significantly
- Reduction of established MRSA USA 400 biofilm (MRSA USA 400 biofilms; 0.125 mM, 24 h treatment of 24 h biofilm, FIG. 14A): reduced the biofilm of MRSA USA 400 significantly
- Reduction of established MRSA USA 400 biofilm (MRSA USA 400 biofilms; concentrations below 0.002 mM, FIG. 14D): no reduction in the biofilm
